{"source": "patent US12458647B2", "about": "“Macrocyclic derivative and use thereof” (Guangzhou Joyo Pharmatech Co., Ltd., priority 2022, dated 2025)", "key": {"LOVO cells": {"tested_on": "LOVO cells", "test": "In vitro cell proliferation experiment (5 days), LOVO", "format": "cell-based", "conditions": "read-out: Inhibitory Activity IC50", "procedure": "RPMI 1640 medium, DMEM, Ham's F12 medium, F12K medium, IMDM and penicillin/streptomycin antibiotics were purchased from Gibco, fetal bovine serum was purchased from Hyclone, Envision multilabel plate reader (PerkinElmer). […]\nThe test compound was diluted by 5-fold to 8 concentrations with a pipette, i.e., from 2 mM to 25.6 nM, and replicate wells were set up for the experiment. […] Another cell plate was prepared, and the signal value was read as the maximum value (the maximum value in the following equation) on the day of dosing for data analysis.\n50 μL of cell viability chemiluminescent detection reagent was added to the cell plate and incubated at room temperature for 30 minutes to stabilize the luminescence signal. A multilabel plate reader was used for reading. […]"}, "[1]": {"test": "In vitro determination of whole blood to plasma concentration ratios, mouse", "format": "in vitro ADME", "conditions": "CD-1 mouse whole blood, 1 μM, 37° C., 60 minutes", "procedure": "(1) Fresh mouse and human whole blood (n≥3 for number of individual animals and n≥2 for number of individual humans) were collected in blood collection tubes containing EDTAK2 anticoagulant. Whole blood samples had to be mixed well and stored at 2-8° C. or on wet ice before use. They were used within 36 hours of whole blood collection. Blank whole blood was centrifuged at 2,000×g for 15 minutes at room temperature to obtain blank plasma. The plasma status was checked and hemolyzed plasma samples could not be used.\n(2) The hematocrit (the percentage content of red blood cells in whole blood) was determined by centrifugation of whole blood samples in microhematocrit centrifuge tubes.\n(3) Diclofenac (all species), chlorthalidone (mouse) or chloroquine (human) were used as control compounds.\n(4) ACN solution containing 2% DMSO with a final concentration of 1 μM of the test compound was added to blank whole blood samples, and three parallel treatments were performed. The final content of the organic phase in the system should not exceed 0.5% (the content of DMSO should not exceed 0.1%). A certain volume of the drug-containing whole blood sample was pipetted to the sample receiving plate (three replicates), an equal volume of blank plasma was added, and mixed well to obtain the T0 sample.\n(5) The whole blood sample containing the test compound was incubated at 37° C. with shaking for 60 minutes.\n(6) After the end of incubation, a certain volume of whole blood samples containing the drug was pipetted to the sample receiving plate (three replicates) as T60-whole blood samples.\n(7) The remaining whole blood samples were centrifuged at 2,000×g for 15 minutes in a 37° C. centrifuge to obtain plasma samples. A certain volume of plasma was pipetted to the sample receiving plate (three replicates) as T60-plasma samples.\n(8) During sample treatment, all samples were equilibrated with the matrix (i.e., blank whole blood or blank plasma of the same volume was added) and mixed well.\n(9) 1-fold volume of pure water was added to the equilibrated sample, and then a certain volume of stop solution containing internal standard compound was added to terminate the reaction.\n(10) The analytes and control compounds in the samples were determined by liquid chromatography-tandem mass spectrometry (LC-MS/MS) method. The ratio of analyte peak area to internal standard peak area was used to represent the concentration in the sample.\nSee Table 7 for the experimental results. Wherein KB/P represents the concentration ratio of the compound in whole blood and plasma. KE/P represents the concentration ratio of the compound in red blood cells and plasma, and recovery (%) represents the recovery of the compound in whole blood."}, "[2]": {"test": "Pharmacokinetic study in rats", "format": "in vivo", "conditions": "male SD rats; for AUC0-last / Cl / T1/2 / Vd / Cmax / TMax: whole blood", "procedure": "To evaluate the pharmacokinetic behavior of the compounds of the present disclosure in male SD rats.\nThe compounds to be tested were dissolved in the vehicle (5% DMSO/10% solutol/85% water). Four male SD rats were divided into 2 groups, with 2 rats in each group. Group 1 rats were administered a single intravenous bolus injection (i.v.) of the compounds at a dose of 1 mg/kg. Group 2 rats were administered a single dose of the compounds by gavage (p.o.) at a dose of 10 mg/kg. Whole blood samples were collected at 0.083 (intravenous bolus group only), 0.25, 0.5, 1, 2, 4, 8 and 24 hours after dosing. The LC-MS/MS method was used to determine the concentration of the test compound in whole blood samples."}}, "data": [{"smiles": "CCn1c(-c2cc(N3CCN(C)CC3)cnc2C(C)OC)c2c3cc(ccc31)-c1csc(n1)CC(NC(=O)C1C(C)C1C)C(=O)N1NC(C(=O)OCC(C)(C)C2)C2CC1C2", "note": "(single isomer, unassigned) [Compound 6A]", "values": [{"measurement": "IC50", "setting": "LOVO cells", "value": 2.8, "unit": "nM"}, {"measurement": "KB/P (concentration ratio of the compound in whole blood and plasma)", "setting": "[1]", "value": 5.3}, {"measurement": "KE/P (concentration ratio of the compound in red blood cells and plasma)", "setting": "[1]", "value": 9.4}, {"measurement": "Recovery (%) of the compound in whole blood", "setting": "[1]", "value": 101.5, "unit": "%"}, {"measurement": "AUC0-last", "setting": "[2]; i.v. 1 mg/kg", "value": 4.125, "unit": "µM·h"}, {"measurement": "Cl", "setting": "[2]; i.v. 1 mg/kg", "value": 4.6, "unit": "mL/min/kg"}, {"measurement": "T1/2", "setting": "[2]; i.v. 1 mg/kg", "value": 5.7, "unit": "h"}, {"measurement": "Vd", "setting": "[2]; i.v. 1 mg/kg", "value": 1.9, "unit": "L/kg"}, {"measurement": "F(%)", "setting": "[2]; p.o. 10 mg/kg", "value": 38, "unit": "%"}, {"measurement": "AUC0-last", "setting": "[2]; p.o. 10 mg/kg", "value": 15.213, "unit": "µM·h"}, {"measurement": "Cmax", "setting": "[2]; p.o. 10 mg/kg", "value": 1620, "unit": "nM"}, {"measurement": "T1/2", "setting": "[2]; p.o. 10 mg/kg", "value": 6.1, "unit": "h"}, {"measurement": "TMax", "setting": "[2]; p.o. 10 mg/kg", "value": 1.5, "unit": "h"}]}, {"smiles": "CCn1c(-c2cc(N3CCN(C)CC3)cnc2C(C)OC)c2c3cc(ccc31)-c1csc(n1)CC(NC(=O)C1CC1C)C(=O)N1NC(C(=O)OCC(C)(C)C2)C2CC1C2", "note": "(single isomer, unassigned) [Compound 7A]", "values": [{"measurement": "IC50", "setting": "LOVO cells", "value": 5.9, "unit": "nM"}, {"measurement": "KB/P (concentration ratio of the compound in whole blood and plasma)", "setting": "[1]", "value": 5.1}, {"measurement": "KE/P (concentration ratio of the compound in red blood cells and plasma)", "setting": "[1]", "value": 8.1}, {"measurement": "Recovery (%) of the compound in whole blood", "setting": "[1]", "value": 97.3, "unit": "%"}, {"measurement": "AUC0-last", "setting": "[2]; i.v. 1 mg/kg", "value": 4.95, "unit": "µM·h"}, {"measurement": "Cl", "setting": "[2]; i.v. 1 mg/kg", "value": 3.6, "unit": "mL/min/kg"}, {"measurement": "T1/2", "setting": "[2]; i.v. 1 mg/kg", "value": 8.5, "unit": "h"}, {"measurement": "Vd", "setting": "[2]; i.v. 1 mg/kg", "value": 2.5, "unit": "L/kg"}, {"measurement": "F(%)", "setting": "[2]; p.o. 10 mg/kg", "value": 34.2, "unit": "%"}, {"measurement": "AUC0-last", "setting": "[2]; p.o. 10 mg/kg", "value": 17.069, "unit": "µM·h"}, {"measurement": "Cmax", "setting": "[2]; p.o. 10 mg/kg", "value": 1460, "unit": "nM"}, {"measurement": "T1/2", "setting": "[2]; p.o. 10 mg/kg", "value": 7.3, "unit": "h"}, {"measurement": "TMax", "setting": "[2]; p.o. 10 mg/kg", "value": 4.0, "unit": "h"}]}]}
